Reference: patent US12509423B2, “Compound, aldehyde dehydrogenase 2 activating agent, pharmaceutical composition, and therapeutic and/or prophylactic drug” (Alchemedicine, Inc., priority 2020, dated 2025)

How the values were obtained:
[1] = target: T1, human recombinant ALDH2 enzyme (Homo sapiens, UniProt P05091); experiment: ALDH2 activation effect (acetaldehyde oxidation rate, PicoProbe Aldehyde dehydrogenase Activity Assay Kit); assay type: biochemical
T1 construct: purchased BioVision Inc
T1 sequence (P05091 18-517): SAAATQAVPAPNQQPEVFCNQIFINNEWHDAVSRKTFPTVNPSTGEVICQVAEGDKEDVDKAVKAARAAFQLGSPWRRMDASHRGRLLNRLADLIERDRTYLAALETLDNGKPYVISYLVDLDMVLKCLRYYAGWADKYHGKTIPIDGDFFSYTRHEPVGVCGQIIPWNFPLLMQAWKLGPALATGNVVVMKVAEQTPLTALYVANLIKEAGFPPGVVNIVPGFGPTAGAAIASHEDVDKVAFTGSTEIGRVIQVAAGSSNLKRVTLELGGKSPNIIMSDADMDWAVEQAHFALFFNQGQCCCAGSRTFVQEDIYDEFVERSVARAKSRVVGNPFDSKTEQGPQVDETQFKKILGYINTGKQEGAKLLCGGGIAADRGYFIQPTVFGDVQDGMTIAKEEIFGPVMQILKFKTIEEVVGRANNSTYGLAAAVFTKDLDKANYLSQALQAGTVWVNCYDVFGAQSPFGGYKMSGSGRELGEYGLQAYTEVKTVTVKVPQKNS
Experimental: The activation effect of each test compound on the acetaldehyde oxidation rate of ALDH2 was measured with the following method. A test was conducted by using a commercially available PicoProbe™ Aldehyde dehydrogenase Activity Assay Kit (manufactured by BioVision Inc.) with reference to an instruction attached to the product under the following conditions. To each well of a 384-well plate, the following (1) to (3) were sequentially added with a pipette: • (1) 10 μL of solution obtained by dissolving and diluting a human recombinant ALDH2 enzyme (manufactured by BioVision Inc.) with ALDH assay Buffer to reach 3-μg/mL; • (2) 10 μL of 30 μM or 90 μM test compound solution (with 3% DMSO) prepared by using ALDH assay Buffer; and • (3) 10 μL of Reaction mix composed with ratio of 8.6 μL of ALDH assay Buffer, 0.6 μL of PicoProbe, 0.3 μL of Substrate Mix, and 1.5 μL of Acetaldehyde.
Before addition of (3), incubation was performed at room temperature for 5 minutes. After addition of (3), fluorescence intensity was measured at room temperature every 2.5 minutes over a period of 180 minutes by using an EnSight (manufactured by PerkinElmer Inc.). Wavelengths of 535 nm and 587 nm were used for fluorescence intensities of excitation and -emission, respectively.

[2] = Metabolic stability with mouse hepatic microsomes; assay type: in vitro ADME; details: for Residual rate (%) of unchanged form: mouse hepatic microsomes, after 30 minutes, 37° C., NADPH
Experimental: Metabolic stability in mouse hepatic microsomes was evaluated with the following method.
• (1) Mouse hepatic microsomes: 20 mg/mL • (2) Test compound: 1.1 mM DMSO solution • (3) Potassium phosphate buffer solution: 66.7 mM (pH 7.4) • (4) NADPH solution: 10 mM in potassium phosphate buffer solution • (5) Quenching solution: 0.5% formic acid-acetonitrile solution with warfarin as internal standard substance 2. Method
Into a propylene tube, 971.5 μL of the potassium phosphate buffer solution and 27.5 μL of the mouse hepatic microsomes were put and suspended. Thereto, 1 μL of a test compound was added, and 180 μL was taken from this mixture and transferred into another tube. The mixture was preincubated at 37° C. for 5 minutes, and 20 μL of the NADPH solution (for the case with an incubation time of 30 minutes) or 20 μL of the potassium phosphate buffer solution (for the case with an incubation time of 0 minutes) was then added thereto. After incubation, 200 μL of the quenching solution was added to terminate the reaction. Subsequently, centrifugation was performed at 3220×g for 20 minutes, and the concentration of the unchanged form of the test compound in 200 μL of the supernatant was measured with LC-MS/MS. On the basis of the peak area obtained for the unchanged form, the residual rate (%) of the unchanged form was calculated as that for the case with an incubation time of 0 minutes was assumed as 100%.

[3] = Metabolic stability with human hepatic microsomes; assay type: in vitro ADME; details: human hepatic microsomes 0.1 mg protein/mL, 0.1 μmol/L test compound, after 30 minutes, 37° C.
Experimental: The specific method is as follows.
• (1) Fifty microliter-portions were taken from 0.2 μmol/L test compound diluted with β-NADPH solution. • (2) Fifty microliters of 0.2 mg protein/mL human hepatic microsome solution was added to each (except for a sample with a reaction time of 0 minutes). • (3) Incubation was performed with shaking at 37° C. for 30 minutes (concentration in reaction sample: 0.1 μmol/L test compound, 0.1 mg protein/mL human hepatic microsome). • (4) After incubation, 400 μL of methanol was added to terminate the reaction. • (5) To the sample with a reaction time of 0 minutes, 50 μL of 0.2 mg protein/mL hepatic microsome solution was added. • (6) Each of the samples from (4) and (5) was left to stand at −20° C. for 30 minutes or longer, and then centrifuged at 4° C. and 3,000 rpm for approximately 10 minutes. • (7) The supernatant was subjected to measurement with LC/MS/MS, and, based on the peak area obtained for the unchanged form, the residual rate (%) of the unchanged form was calculated as that for the case with an incubation time of 0 minutes was assumed as 100%.

[4] = target: hERG (human Ether-a-go-go Related Gene) channel (Homo sapiens, UniProt Q12809); experiment: hERG channel inhibition effect (whole-cell patch clamp); assay type: cell-based; details: 22 to 25° C.
Experimental: The hERG (human Ether-a-go-go Related Gene) channel inhibition effect of each test compound was examined with the following patch clamp method.
Under a fixed potential, an hERG current that passed through the whole cell membrane was recorded with the whole-cell patch clamp method.
To confirm the hERG current, the holding potential was set to −80 mV, and depolarizing pulses at −50 mV for 110 msec and at 20 mV for 4 sec and a subsequent repolarizing pulse at −50 mV for 2 sec were provided at a frequency of once per 15 seconds. After the stabilization of the hERG tail current obtained was confirmed, an application was initiated. The pulses were continuously provided also during the application.
The sampling frequency was set to 5 kHz, and Lowpass Filter was applied at 2 kHz. […]
hERG currents were measured by using an amplifier for patch clamping (Axopatch 200B, Molecular Devices, LLC), and electric signals obtained were recorded in a computer via recording/analysis software for patch clamping (pCLAMP 10, Molecular Devices, LLC).
The maximum tail current value was determined on the basis of the current value with the depolarizing pulse at −50 mV for 110 msec, and the change rate (suppression rate) 5 minutes after the initiation of application to the maximum tail current value before application of the test compound was calculated.

[5] = tested on: pain induced by carrageenan (mechanical allodynia); experiment: Suppression effect on pain induced by carrageenan (von Frey escape score); assay type: in vivo, C57BL/6J mice; details: mean ± SE
Experimental: This experiment was carried out with reference to Science Translational Medicine 6, 251ra118 (2014). Animals used were 7-week-old male C57BL/6J mice (Charles River Laboratories Japan, Inc.). To induce mechanical allodynia to a sole part, carrageenan was subcutaneously administered to the sole of the left hind limb of each mouse. The escape response against mechanical stimulation 180 minutes after the induction was measured by using a von Frey filament with bending force (0.16 grams) to the sole surface of the left hind limb in the ascending direction. […] The commercially available statistical program SAS SYSTEM (SAS Software Release 9.1.3; SAS Institute Japan Ltd.) was used for the significance test.

[6] = concentration of test compound 10 μM
[7] = concentration of test compound 30 μM

Chain of hERG (human Ether-a-go-go Related Gene) channel (Q12809 whole entry): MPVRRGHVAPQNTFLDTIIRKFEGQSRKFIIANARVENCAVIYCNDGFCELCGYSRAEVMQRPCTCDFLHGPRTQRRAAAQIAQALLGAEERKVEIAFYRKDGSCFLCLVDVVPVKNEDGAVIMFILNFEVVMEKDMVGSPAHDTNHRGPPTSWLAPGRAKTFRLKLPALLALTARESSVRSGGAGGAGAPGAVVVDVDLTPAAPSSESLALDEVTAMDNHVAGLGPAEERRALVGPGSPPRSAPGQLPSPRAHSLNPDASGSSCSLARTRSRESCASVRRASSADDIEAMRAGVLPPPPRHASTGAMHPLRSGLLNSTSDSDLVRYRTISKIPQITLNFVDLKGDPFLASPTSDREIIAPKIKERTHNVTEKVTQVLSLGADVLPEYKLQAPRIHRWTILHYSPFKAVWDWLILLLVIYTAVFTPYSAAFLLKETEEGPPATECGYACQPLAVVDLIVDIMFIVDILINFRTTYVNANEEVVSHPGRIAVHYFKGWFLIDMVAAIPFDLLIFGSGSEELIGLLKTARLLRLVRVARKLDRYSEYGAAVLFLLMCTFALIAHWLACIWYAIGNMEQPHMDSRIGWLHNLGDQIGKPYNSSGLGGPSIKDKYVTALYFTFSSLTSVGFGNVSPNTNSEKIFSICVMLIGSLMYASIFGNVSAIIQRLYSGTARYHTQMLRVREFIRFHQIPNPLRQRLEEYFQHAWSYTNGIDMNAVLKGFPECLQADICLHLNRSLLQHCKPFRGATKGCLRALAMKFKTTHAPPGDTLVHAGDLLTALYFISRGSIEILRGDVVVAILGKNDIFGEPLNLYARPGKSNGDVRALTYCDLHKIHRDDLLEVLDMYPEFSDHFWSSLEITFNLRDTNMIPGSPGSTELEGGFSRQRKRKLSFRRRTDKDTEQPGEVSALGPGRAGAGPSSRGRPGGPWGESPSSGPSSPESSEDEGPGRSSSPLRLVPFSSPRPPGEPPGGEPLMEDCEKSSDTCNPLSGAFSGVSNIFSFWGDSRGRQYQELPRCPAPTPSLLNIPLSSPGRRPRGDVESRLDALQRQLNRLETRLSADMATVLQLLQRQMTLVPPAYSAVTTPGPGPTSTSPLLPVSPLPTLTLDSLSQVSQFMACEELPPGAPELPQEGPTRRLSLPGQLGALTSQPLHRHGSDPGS

Row | SMILES | acetaldehyde oxidation rate (rate with no test compound assumed as 100%) [1, 6] | acetaldehyde oxidation rate (rate with no test compound assumed as 100%) [1, 7] | metabolic stability in mouse hepatic microsomes (in words) [2] | Residual rate (%) of unchanged form [2] | Residual rate (%) of unchanged form [3] | IC50 [4] | Pain-related total score ([5]; 2 mg/kg s.c. three times, 180 min after induction with carrageenan) | Pain-related total score ([5]; 2 mg/kg s.c. three times, Pre (before carrageenan treatment)) | Pain-related total score ([5]; 6 mg/kg s.c. three times, 180 min after induction with carrageenan, significant difference from Vehicle group) | Pain-related total score ([5]; 6 mg/kg s.c. three times, Pre (before carrageenan treatment)) | Pain-related total score ([5]; 20 mg/kg s.c. three times, 180 min after induction with carrageenan) | Pain-related total score ([5]; 20 mg/kg s.c. three times, Pre (before carrageenan treatment))
1 | COCc1ccc(CNC(=O)c2cc(-c3ncccc3C(C)O)ccc2F)cc1F (racemic) [Example 2, Racemic 2-fluoro-N-(3-fluoro-4-(methoxymethyl)benzyl)-5-(3-(1-hydroxyethyl)pyridin-2-yl)benzamide] | 127% | 166% | confirmed to have stability | 68% | 87% | > 30 µM |  |  |  |  |  | 
2 | COCc1ccc(CNC(=O)c2cc(-c3ncccc3CO)ccc2F)cc1F [Example 1, 2-Fluoro-N-(3-fluoro-4-(methoxymethyl)benzyl)-5-(3-(hydroxymethyl)pyridin-2-yl)benzamide] | 196% | 238% | confirmed to have stability | 90% | 90% | > 100 µM | 10.5 ± 1.6 | 3.0 ± 0.3 | 8.3 ± 1.0 | 3.0 ± 0.3 | 8.6 ± 1.4 | 3.0 ± 0.3
